Columns and labels:
Format in all cases: cell-based
[1] = system: five different strains of bacteria; assay: Successive dilution in TSB, statements on all five strains
Experimental: (§1) The following is a summary of an experiment using the benzaldehyde composition as disclosed herein to destroy bacteria, for example to test it as a preservative of food. The benzaldehyde was tested for its ability to inhibit the growth of microbes at ten different concentrations of the benzaldehyde, each concentration was half of the previous concentrations as a result of a dilution using TSB as the medium. The following concentrations were tested by successive dilutions of 100% benzaldehyde: 50%, 25%, 12.5%, 6.25%, 3.125%, 1.5625%, 0.78125%, 0.390625%, 0.195313%, 0.097656%. Each concentration appears in the chart below for each of five different strains of bacteria. The experiment was conducted twice and therefore generated two charts (see below). […] Thus, the minimum concentration needed to substantially eliminate the bacterial strain can be deduced from the experiment.
(§2) The initial concentration of the microbes was approximately […]. The microbes studied are listed below. Enterococcus feaclis • 2. Staphylococcus aureus • 3. Pseudomonas aeruginosa • 4. E. coli • 5. Klebsiella pneomoniae
A further experiment was conducted in which instead of starting from a 100% concentration, we started from a 10% concentration of benzaldehyde and performed successive dilutions. […] This experimental was not repeated after receiving the results.

[2] = system: E. coli; assay: Successive dilution in TSB, growth inhibition; set-up: key: The presence of a “+” in the box indicates that the particular bacteria was found; the presence of a “−” indicates that the particular bacteria was not found; conditions: benzaldehyde concentration given as 2, in TSB; Table 1
[3] = system: Enterococcus feaclis; assay: Successive dilution in TSB, growth inhibition; set-up: key: The presence of a “+” in the box indicates that the particular bacteria was found; the presence of a “−” indicates that the particular bacteria was not found
Experimental: as §1, §2

[4] = system: Pseudomonas aeruginosa; assay: Successive dilution in TSB, growth inhibition; set-up: key: The presence of a “+” in the box indicates that the particular bacteria was found; the presence of a “−” indicates that the particular bacteria was not found
Experimental: as §1, §2

[5] = system: Klebsiella pneomoniae; assay: Successive dilution in TSB, growth inhibition; set-up: key: The presence of a “+” in the box indicates that the particular bacteria was found; the presence of a “−” indicates that the particular bacteria was not found
Experimental: as §1, §2

[6] = system: E. coli; assay: Successive dilution in TSB, growth inhibition; set-up: key: The presence of a “+” in the box indicates that the particular bacteria was found; the presence of a “−” indicates that the particular bacteria was not found
Experimental: as §1, §2

[7] = system: Staphylococcus aureus; assay: Successive dilution in TSB, growth inhibition; set-up: key: The presence of a “+” in the box indicates that the particular bacteria was found; the presence of a “−” indicates that the particular bacteria was not found
Experimental: as §1, §2

[8] = conclusion from the dilution experiments
[9] = benzaldehyde 0.097656% in TSB, Table 1
[10] = benzaldehyde 0.097656% in TSB, Table 2
[11] = benzaldehyde 0.195313% in TSB, Table 1
[12] = benzaldehyde 0.195313% in TSB, Table 2
[13] = benzaldehyde 0.390625% in TSB, Table 1
[14] = benzaldehyde 0.390625% in TSB, Table 2
[15] = benzaldehyde 0.78125% in TSB, Table 1
[16] = benzaldehyde 0.78125% in TSB, Table 2
[17] = benzaldehyde 1.5625% in TSB, Table 1
[18] = benzaldehyde 1.5625% in TSB, Table 2
[19] = benzaldehyde 3.125% in TSB, Table 1
[20] = benzaldehyde 3.125% in TSB, Table 2
[21] = benzaldehyde 6.25% in TSB, Table 1
[22] = benzaldehyde 6.25% in TSB, Table 2
[23] = benzaldehyde 12.5% in TSB, Table 1
[24] = benzaldehyde 12.5% in TSB, Table 2
[25] = benzaldehyde 25% in TSB, Table 2
[26] = benzaldehyde 50% in TSB, Table 1
[27] = benzaldehyde 50% in TSB, Table 2
[28] = benzaldehyde concentration given as 2, in TSB, Table 1

SMILES: O=Cc1ccccc1 [Benzaldehyde]
- benzaldehyde concentration giving a broad spectrum effect [1, 8]: ≥ 12.5%
- benzaldehyde concentration giving an antibacterial effect against at least some bacteria [1, 8]: ≥ 1.5625%
- detection of bacteria ([1]; further experiment started from 10% benzaldehyde, first dilution to 5%, all strains): positive detection of bacteria for all strains
- bacteria found (+) / not found (−) [2]: −
- bacteria found (+) / not found (−) [3, 9]: +
- bacteria found (+) / not found (−) [3, 10]: +
- bacteria found (+) / not found (−) [3, 11]: +
- bacteria found (+) / not found (−) [3, 12]: +
- bacteria found (+) / not found (−) [3, 13]: +
- bacteria found (+) / not found (−) [3, 14]: +
- bacteria found (+) / not found (−) [3, 15]: +
- bacteria found (+) / not found (−) [3, 16]: +
- bacteria found (+) / not found (−) [3, 17]: +
- bacteria found (+) / not found (−) [3, 18]: +
- bacteria found (+) / not found (−) [3, 19]: +
- bacteria found (+) / not found (−) [3, 20]: +
- bacteria found (+) / not found (−) [3, 21]: +
- bacteria found (+) / not found (−) [3, 22]: +
- bacteria found (+) / not found (−) [3, 23]: −
- bacteria found (+) / not found (−) [3, 24]: −
- bacteria found (+) / not found (−) [3, 25]: −
- bacteria found (+) / not found (−) [3, 26]: −
- bacteria found (+) / not found (−) [3, 27]: −
- bacteria found (+) / not found (−) [3, 28]: −
- bacteria found (+) / not found (−) [4, 9]: +
- bacteria found (+) / not found (−) [4, 10]: +
- bacteria found (+) / not found (−) [4, 11]: +
- bacteria found (+) / not found (−) [4, 12]: +
- bacteria found (+) / not found (−) [4, 13]: +
- bacteria found (+) / not found (−) [4, 14]: +
- bacteria found (+) / not found (−) [4, 15]: +
- bacteria found (+) / not found (−) [4, 16]: +
- bacteria found (+) / not found (−) [4, 17]: −
- bacteria found (+) / not found (−) [4, 18]: −
- bacteria found (+) / not found (−) [4, 19]: −
- bacteria found (+) / not found (−) [4, 20]: −
- bacteria found (+) / not found (−) [4, 21]: −
- bacteria found (+) / not found (−) [4, 22]: −
- bacteria found (+) / not found (−) [4, 23]: −
- bacteria found (+) / not found (−) [4, 24]: −
- bacteria found (+) / not found (−) [4, 25]: −
- bacteria found (+) / not found (−) [4, 26]: −
- bacteria found (+) / not found (−) [4, 27]: −
- bacteria found (+) / not found (−) ([4]; in TSB, Table 1): −
- bacteria found (+) / not found (−) [5, 9]: +
- bacteria found (+) / not found (−) [5, 10]: +
- bacteria found (+) / not found (−) [5, 11]: +
- bacteria found (+) / not found (−) [5, 12]: +
- bacteria found (+) / not found (−) [5, 13]: +
- bacteria found (+) / not found (−) [5, 14]: −
- bacteria found (+) / not found (−) [5, 15]: +
- bacteria found (+) / not found (−) [5, 16]: −
- bacteria found (+) / not found (−) [5, 17]: −
- bacteria found (+) / not found (−) [5, 18]: −
- bacteria found (+) / not found (−) [5, 19]: −
- bacteria found (+) / not found (−) [5, 20]: −
- bacteria found (+) / not found (−) [5, 21]: −
- bacteria found (+) / not found (−) [5, 22]: −
- bacteria found (+) / not found (−) [5, 23]: −
- bacteria found (+) / not found (−) [5, 24]: −
- bacteria found (+) / not found (−) [5, 25]: −
- bacteria found (+) / not found (−) [5, 26]: −
- bacteria found (+) / not found (−) [5, 27]: −
- bacteria found (+) / not found (−) [5, 28]: −
- bacteria found (+) / not found (−) [6, 9]: +
- bacteria found (+) / not found (−) [6, 10]: +
- bacteria found (+) / not found (−) [6, 11]: +
- bacteria found (+) / not found (−) [6, 12]: +
- bacteria found (+) / not found (−) [6, 13]: +
- bacteria found (+) / not found (−) [6, 14]: +
- bacteria found (+) / not found (−) [6, 15]: +
- bacteria found (+) / not found (−) [6, 16]: +
- bacteria found (+) / not found (−) [6, 17]: −
- bacteria found (+) / not found (−) [6, 18]: −
- bacteria found (+) / not found (−) [6, 19]: −
- bacteria found (+) / not found (−) [6, 20]: −
- bacteria found (+) / not found (−) [6, 21]: −
- bacteria found (+) / not found (−) [6, 22]: −
- bacteria found (+) / not found (−) [6, 23]: −
- bacteria found (+) / not found (−) [6, 24]: −
- bacteria found (+) / not found (−) [6, 25]: −
- bacteria found (+) / not found (−) [6, 26]: −
- bacteria found (+) / not found (−) [6, 27]: −
- bacteria found (+) / not found (−) [7, 9]: +
- bacteria found (+) / not found (−) [7, 10]: +
- bacteria found (+) / not found (−) [7, 11]: +
- bacteria found (+) / not found (−) [7, 12]: +
- bacteria found (+) / not found (−) [7, 13]: +
- bacteria found (+) / not found (−) [7, 14]: +
- bacteria found (+) / not found (−) [7, 15]: +
- bacteria found (+) / not found (−) [7, 16]: +
- bacteria found (+) / not found (−) [7, 17]: +
- bacteria found (+) / not found (−) [7, 18]: −
- bacteria found (+) / not found (−) [7, 19]: −
- bacteria found (+) / not found (−) [7, 20]: −
- bacteria found (+) / not found (−) [7, 21]: −
- bacteria found (+) / not found (−) [7, 22]: −
- bacteria found (+) / not found (−) [7, 23]: −
- bacteria found (+) / not found (−) [7, 24]: −
- bacteria found (+) / not found (−) [7, 25]: −
- bacteria found (+) / not found (−) [7, 26]: −
- bacteria found (+) / not found (−) [7, 27]: −
- bacteria found (+) / not found (−) [7, 28]: −
